According to ChEMBL document CHEMBL1201862, “PubChem BioAssay data set” (2004):
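In this assay, cells in 96-well plates receive the compound at five concentrations for 48 hours. Endpoints are linearly interpolated between the surrounding concentrations. GI50 marks 50% less growth.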 Activity calls are given as the source filed them. No stated cut-off is given here; in the data, active = GI50 up to about 1.1 µM and inactive = higher.

Columns and labels:
Test in all cases: NCI tumour cell line growth inhibition, 48 h
OVCAR-4 = test system: OVCAR-4
DMS-273 = test system: DMS-273
Malme-3M = test system: Malme-3M
SF-539 = test system: SF-539
OVCAR-3 = test system: OVCAR-3
SF-295 = test system: SF-295
HCT-116 = test system: HCT-116
K562 = test system: K562
SF-268 = test system: SF-268
UO-31 = test system: UO-31
HOP-92 = test system: HOP-92
IGROV-1 = test system: IGROV-1
SNB-75 = test system: SNB-75
HL-60 = test system: HL-60
SK-MEL-2 = test system: SK-MEL-2
SK-MEL-28 = test system: SK-MEL-28
TK-10 = test system: TK-10
HT-29 = test system: HT-29

Measured: GI50

O=C(O)/C(Cl)=C(Cl)/C=N/NC(=O)c1cc2ccccc2cc1O
inactive: OVCAR-4 5.66 µM | DMS-273 6.84 µM | Malme-3M 37.2 µM | SF-539 29.6 µM | OVCAR-3 6.11 µM | SF-295 11.9 µM | HCT-116 13.9 µM | K562 6.11 µM | SF-268 7.66 µM | UO-31 2.48 µM | HOP-92 30.3 µM | IGROV-1 15.5 µM | SNB-75 3.38 µM | HL-60 5.42 µM | SK-MEL-2 16 µM | SK-MEL-28 29.8 µM | TK-10 35.5 µM | HT-29 38.6 µM

O=C(c1ccccc1)c1c(CNCc2ccccc2)n(C(=O)c2ccccc2)c2ccccc12
inactive: OVCAR-4 9.95 µM | DMS-273 47.1 µM | Malme-3M 77.1 µM | SF-539 69.3 µM | OVCAR-3 15.4 µM | SF-295 9.51 µM | HCT-116 8.67 µM | K562 6.37 µM | SF-268 43.4 µM | UO-31 8.95 µM | HOP-92 13.7 µM | IGROV-1 > 100 µM | SNB-75 2.84 µM | HL-60 23.3 µM | SK-MEL-2 63.4 µM | SK-MEL-28 > 100 µM | TK-10 > 100 µM | HT-29 24.6 µM

Cc1cc(=O)n(-c2ccccc2C)c(C)n1
inactive: OVCAR-4 > 100 µM | DMS-273 > 100 µM | Malme-3M > 100 µM | SF-539 > 100 µM | OVCAR-3 > 100 µM | SF-295 > 100 µM | HCT-116 > 100 µM | K562 > 100 µM | SF-268 > 100 µM | UO-31 > 100 µM | HOP-92 > 100 µM | IGROV-1 > 100 µM | SNB-75 > 100 µM | HL-60 > 100 µM | SK-MEL-2 > 100 µM | SK-MEL-28 > 100 µM | TK-10 > 100 µM | HT-29 > 100 µM

CCOC1=C2N=C(C(CC)c3ccccc3F)N=C2C(=O)c2ccccc21 (stereo unspecified)
inactive: OVCAR-4 > 100 µM | DMS-273 > 100 µM | Malme-3M > 100 µM | SF-539 > 100 µM | OVCAR-3 > 100 µM | SF-295 > 100 µM | HCT-116 > 100 µM | K562 > 100 µM | SF-268 > 100 µM | UO-31 > 100 µM | HOP-92 95.7 µM | SNB-75 25.4 µM | HL-60 > 100 µM | SK-MEL-2 > 100 µM | SK-MEL-28 > 100 µM | TK-10 3.27 µM | HT-29 > 100 µM

COc1ccc(N2C(=O)C3CC(c4ccc(C)cc4)c4c([nH]c5ccccc45)C3C2=O)cc1 (stereo unspecified)
inactive: OVCAR-4 13.9 µM | DMS-273 24.1 µM | Malme-3M 15.5 µM | SF-539 23.7 µM | OVCAR-3 5.65 µM | SF-295 > 48.8 µM | HCT-116 4.43 µM | K562 > 63 µM | SF-268 19.5 µM | UO-31 > 47.2 µM | HOP-92 24 µM | IGROV-1 38 µM | SNB-75 18.4 µM | HL-60 14.5 µM | SK-MEL-2 > 75.2 µM | SK-MEL-28 > 49.9 µM | TK-10 36.5 µM | HT-29 16.3 µM

NCC(NC(=O)OCc1ccccc1)C(=O)O (stereo unspecified)
inactive: OVCAR-4 > 50 µM | DMS-273 > 50 µM | Malme-3M > 50 µM | SF-539 > 50 µM | OVCAR-3 > 50 µM | SF-295 > 50 µM | HCT-116 > 50 µM | K562 > 50 µM | SF-268 > 50 µM | UO-31 > 50 µM | HOP-92 > 50 µM | IGROV-1 > 50 µM | SNB-75 > 50 µM | HL-60 > 50 µM | SK-MEL-2 > 50 µM | SK-MEL-28 > 50 µM | TK-10 > 50 µM | HT-29 > 50 µM

CCCCN(CCCC)C(=O)C(=O)C(C)C(=O)CC (stereo unspecified)
inactive: OVCAR-4 > 100 µM | DMS-273 > 100 µM | Malme-3M > 100 µM | SF-539 > 100 µM | OVCAR-3 > 100 µM | SF-295 > 100 µM | K562 > 100 µM | SF-268 > 100 µM | UO-31 > 100 µM | HOP-92 > 100 µM | IGROV-1 > 100 µM | SNB-75 > 100 µM | HL-60 > 100 µM | SK-MEL-2 > 100 µM | SK-MEL-28 > 100 µM | TK-10 > 100 µM | HT-29 > 100 µM

NNC(=O)N/N=C1\C(=O)N(c2ccc(Cl)c(Cl)c2)C(=O)C(=O)C1c1nc2ccccc2s1 (stereo unspecified)
inactive: OVCAR-4 > 100 µM | DMS-273 > 100 µM | Malme-3M > 100 µM | SF-539 > 100 µM | OVCAR-3 > 100 µM | SF-295 > 100 µM | HCT-116 > 100 µM | SF-268 > 100 µM | UO-31 > 100 µM | HOP-92 > 100 µM | IGROV-1 > 100 µM | SNB-75 > 100 µM | HL-60 > 100 µM | SK-MEL-2 > 100 µM | SK-MEL-28 > 100 µM | TK-10 > 100 µM | HT-29 > 100 µM
